Here are results for 3 compounds from ChEMBL document CHEMBL1128985, “Mechanism-based inactivation of -chymotrypsin” (Bioorg Med Chem Lett, 1996).

Each structure is given as a SMILES string. A value given as a limit tells only on which side of the number the result lay.

The target in experiment [1] is Chymotrypsinogen A (Bos taurus) (UniProt P00766). The experiment can be described thus: Irreversible inhibitory activity against alpha-chymotrypsin; No inhibition.
For experiment [2], the target named is T1, Chymotrypsin-like elastase family member 2A (Sus scrofa) (UniProt P08419).
T1 sequence (whole entry): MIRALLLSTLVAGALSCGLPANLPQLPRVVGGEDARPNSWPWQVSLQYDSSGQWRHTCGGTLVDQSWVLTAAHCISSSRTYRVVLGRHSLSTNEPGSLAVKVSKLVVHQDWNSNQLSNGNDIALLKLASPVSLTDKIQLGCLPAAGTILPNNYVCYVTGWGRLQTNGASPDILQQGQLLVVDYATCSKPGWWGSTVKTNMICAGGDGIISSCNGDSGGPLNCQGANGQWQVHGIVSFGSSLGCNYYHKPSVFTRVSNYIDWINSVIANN
The experiment can be described thus: Irreversible inhibitory activity against porcine pancreatic elastase at concentration 4.8 uM; No irreversible inhibitory activity.

Experiment [3] has as its target Chymotrypsinogen A (Bos taurus) (UniProt P00766). The experiment can be described thus: Irreversible inhibitory activity against alpha-chymotrypsin; Inhibition observed.

`O=C(O)CCC(=O)N[C@@H](Cc1ccccc1)C(=O)OC1CC1(Cl)Cl` (some centres undefined): the Activity in experiment [1] is under 1 mM.
As for `CC(NC(=O)C(C)NC(=O)CCC(=O)N[C@@H](Cc1ccccc1)C(=O)OC1CC1(Cl)Cl)C(=O)O` (some centres undefined), the Activity worked out at 1.2 mM in experiment [2] and 500 µM in experiment [3].
In experiment [1], `O=C(O)CCC(=O)N[C@@H](Cc1ccccc1)C(=O)NC1CC1(Cl)Cl` (some centres undefined) gave an Activity of 14.5 mM.
